Laboratory results taken from patent US20260234634A1, “UNG/UDG INHIBITION IN BRCA-ASSOCIATED CANCER” (INSTITUT CURIE, priority 2023, published 2026).

B1: UGI: peptide inhibitor of UNG, delivered by retroviral particles (protein, UniProt P14739 1-84, looked up)
Uracil-DNA glycosylase …: MTNLSDIIEKETGKQLVIQESILMLPEEVEEVIGNKPESDILVHTAYDESTDENVMLLTSDAPEYKPWALVIQDSNGENKIKML

What was measured:
Type in all cases: cell-based
WT RPE-1 cells = assay: 12-day clonogenic survival assay, WT cells; conditions: for IC50: calculated IC50, WT cells
Method: (§1) a. Top, Immunoblot profiling of WT and NMNAT1^−/− RPE-1 cells for the indicated proteins. Bands corresponding to UNG1 (lower MW) and UNG2 (higher MW) are indicated. […] Cells were treated for 24 hours with the indicated doses of FdUrd, with and without 5 μM TAS-114. Bottom, Cell cycle distribution of WT (+/+) and NMNAT1^−/− (−/−) RPE-1 cells treated as in (top) (n=2). b. Quantification of gDNA-uracil and DNA breaks by modified comet assay with (right) and without (left) recombinant UNG (rUNG) respectively, in WT RPE-1 cells upon 24-hour FdUrd treatment with and without 5 μM TAS-114. Results are shown as tail moment. At least 80 comets per condition was measured using CometScore. […] The enzymes involved are indicated in bold and italic. Bottom, Immunoblot profiling of NMNAT1, ADP-ribosylation (PAR) and PARP1 (short and long exposures) in WT and NMNAT1^−/− cells complemented or not with wild type (WT) or catalytically-dead mutant (MUT) NMNAT1 (W169A). PARP1 was detected after membrane stripping of the anti-ADP ribosylation antibody. Cells were treated or not with PDD 00017273 (PARGi, 10 μM) for 2 hours and 10 mM MMS was added the last 10 minutes before cell lysis. Vinculin was used as loading control. d. Quantification of the 12-day clonogenic survival assay of the same cells as in (c, bottom) treated or not with the indicated doses of rucaparib (PARPi) for the duration of the experiment (n=3). e. Quantification of the 12-day clonogenic survival assay in WT (black) and NMNAT1^−/− (red) cells following exposure to the indicated doses of the indicated DNA-damaging drugs (n=3). f. Quantification of the 12-day clonogenic survival assay in WT, NMNAT1^−/−, and UNG^−/− cells following 24-hour exposure to the indicated doses of FdUrd with or without 5 μM TAS-114 (n=3). g. Quantification of the 12-day clonogenic survival assay in WT (black), NMNAT1^−/−, and UNG^−/− cells following 24-hour exposure to the indicated doses of TAS-114. (n=3). For WT cells, data are the same as in (FIG. 14c). h. Top, RT-qPCR quantification of DUT mRNA levels following 72-hour transfection of WT RPE-1 cells with DUT siRNA (siDUT) or relative control (siCTRL). Results are represented as fold change over siCTRL. (Bottom), Quantification of the 12-day clonogenic survival assay in WT (left), NMNAT1^−/− (middle), and UNG^−/− (right) cells following transfection with DUT siRNA and relative control (siCTRL). Data were expressed as a percentage (mean±s.e.m.) of colonies formed in each cell line relative to the appropriate siCTRL (n=3). i. Quantification of gDNA-uracil and DNA breaks as in (b) in WT and NMNAT1^−/− cells upon 0.08 μM FdUrd treatment with and without 5 μM TAS-114 for 24 hours.
(§2) To investigate the mechanism underlying the interplay between UNG and SMUG1, the inventors investigated the role of nuclear NAD^+ (nicotinamide adenine dinucleotide), a molecule with essential—yet poorly characterized—functions in DNA repair. In the nucleus of mammalian cells NAD^+ is synthesized by NMNAT1 (nicotinamide mononucleotide adenylyltransferase 1) and fuels the activity of PARP1 and sirtuins (FIG. 15c). The inventors generated NMNAT1 knockout (NMNAT1^−/−) RPE-1 cells and evaluated their sensitivity to a panel of DNA damaging agents (Table 1).

NMNAT1−/− RPE-1 cells = assay: 12-day clonogenic survival assay, NMNAT1 knockout cells; conditions: for IC50: calculated IC50, NMNAT1−/− cells; for sensitivity of NMNAT1−/− cells relative to WT cells: drugs targeting the TS pathway; for Fold change (WT/NMNAT1−/−): ratio of IC50 WT to IC50 NMNAT1−/−
Method: as §1, §2

[1] = test system: BRCA2−/−-derived PARPi-resistant RPE-1 cells; assay: Clonogenic formation, PARPi-resistant BRCA2 knockout cells; conditions: 0.5 mM inhibitor
Method: (§3) FIG. 7. a, Clonogenic formation of wild type (WT) and BRCA2−/− (clones C1 and C2) following exposure to the indicated doses of SIRT6 inhibitor OSS_128167. b, Clonogenic formation of wild type (WT), BRCA2−/− (clones C1 and C2) and BRCA2−/−-derived PARPi-resistant RPE-1 cells following exposure to 0.5 mM SIRT6 inhibitor OSS_128167. c, Clonogenic formation of parental and derived PARPi-resistant CAPAN-1 clones following exposure to the indicated doses of SIRT6 inhibitor OSS_128167. The normal breast epithelial cells MCF10A were included as an HR-proficient cell line.

MCF10A cells = assay: Clonogenic formation, normal breast epithelial cells; conditions: same doses as for the CAPAN-1 clones
Method: as §3

[2] = test system: PARPi-resistant CAPAN-1 clones; assay: Clonogenic formation, PARPi-resistant CAPAN-1 clones; conditions: indicated doses
Method: as §3

[3] = test system: BRCA2−/− RPE-1 cells (clones C1 and C2); assay: Clonogenic formation / survival assay, BRCA2 knockout clones
Method: as §3
a. Quantification (top) and representative image (bottom right) of the 12-day clonogenic survival assay in WT and BRCA2^−/− cells following transduction with viral particles carrying either pLentiCRISPRv2 Neo_UNG gRNA (UNG gRNA) or relative control (CTRL gRNA) (n=3). Cells were seeded for clonogenic assay after selection with G418. Bottom left, Immunoblot analysis of UNG after G418 selection. b. […] Right, qPCR-based quantification of UNG activity in the same cell lines as in (left). c. […] Right, immunoblot analysis of UNG in the same samples as in (left). The arrows indicate UNG1 (lower) and UNG2 (upper). Vinculin was used as a loading control. d. […] Left, Quantification (left) and representative images (right) of the 12-day clonogenic survival assay in WT and NMNAT1^−/− cells complemented or not (EV, empty vector) with wild-type (WT) or catalytically-dead mutant (MUT:W169A) NMNAT1 cDNA following transfection with siBRCA2 (n=3). f. Quantification of the 12-day clonogenic survival assay in the HR-deficient cancer cell lines CAPAN1 (BRCA2 mutated) and OVCAR8 (BRCA1 promoter hypermethylation) following transfection with siUNG #7 (n=3). g. Quantification (left) and representative images (right) of the 12-day clonogenic survival assay in a panel of HR-proficient and HR-deficient cancer and normal (MCF10A) cell lines following transfection with siNMNAT1 (n=3).

[4] = test system: cells lacking either NMNAT1 or UNG; assay: γH2AX foci formation (DSB) by immunofluorescence; conditions: 24 h treatment, EdU-positive cells
Method: FIG. 11. Uracil excision is regulated by nuclear NAD^+. a. Quantification of post-replicative ssDNA gaps using DNA fiber assay in P53^−/− RPE-1 cells after 48-hours transfection with the indicated siRNAs. b. Schematic of 2′-deoxyuridine (dUTP)/thymidine (dTTP) biosynthetic pathway. The biological processes involved are in italic. c. Nuclear fractionation and immunoblot profiling of the indicated proteins following 24-hour drug exposure (0.1 μM FdUrd+5 μM TAS-114) of WT and UNG^−/− cells. For the washed-out samples (w.o.), cells were harvested 24 hours after drug removal. Western blot images are representative of three experiments. d. Left, quantification of DNA breaks (left, − rUNG) and gDNA-uracil (right, + rUNG) in wild type (WT) and NMNAT1^−/− cells upon 24-hour FdUrd treatment (20 μM) and the indicated hours after drug washout (w.o.). […] Right, Quantification of UNG protein level captured as in (left) normalized over captured PCNA and H3. f. Quantification of γH2AX foci formation before and after 24 h treatment of WT (grey) and NMNAT1^−/− (orange) cells with the indicated doses of TAS-114 (μM). g. Quantification (left) and representative images (right) of 12-day clonogenic survival assay following transfection with siRNAs and drug treatment of WT and NMNAT1^−/− cells as indicated. […]
a. […] Mass spectrometry-based quantification of the indicated metabolites (n=3). c. […]

Molecule	Fold change (WT/NMNAT1−/−) (NMNAT1−/− RPE-1 cells)	IC50 (WT RPE-1 cells)	IC50 (NMNAT1−/− RPE-1 cells)	also measured
O=c1[nH]c(=O)n([C@H]2C[C@H](O)[C@@H](CO)O2)cc1F [FDURD, 5-fluorodeoxyuridine]	2.92			IC50 (WT RPE-1 cells; Homo sapiens, RPE-1): 51.6 µM; IC50 (NMNAT1−/− RPE-1 cells; Homo sapiens, RPE-1): 17.7 µM; sensitivity of NMNAT1−/− cells relative to WT cells (NMNAT1−/− RPE-1 cells): more sensitive than WT cells
OO [H202]	1.03	22.8 µM	22.1 µM	
NC(=O)NO [HU, hydroxyurea]	2.46	1570 µM	637 µM	
COS(C)(=O)=O [MMS]	1.86	242 µM	130 µM	
CN(Cc1cnc2nc(N)nc(N)c2n1)c1ccc(C(=O)N[C@@H](CCC(=O)O)C(=O)O)cc1 [MTX]	12.75	112 µM	8.8 µM	sensitivity of NMNAT1−/− cells relative to WT cells (NMNAT1−/− RPE-1 cells): more sensitive than WT cells
O=C(Nc1ccc(O)c(C(=O)O)c1)c1cccc(NC(=O)c2ccco2)c1 [OSS_128167]				survival of parental HRP cells (WT RPE-1 cells; parental HRP RPE-1 cells, indicated doses): no effect on the survival; clonogenic formation [1]: killed the PARPi-resistant BRCA2−/− RPE-1 cells to a similar extent than the parental drug-naïve cells; clonogenic ability (MCF10A cells): did not affect the clonogenic ability; clonogenic formation [2]: resulted in cell death; clonogenic ability ([3]; BRCA2−/− RPE-1 cells, indicated doses): impaired the clonogenic ability
C[C@@H](NS(=O)(=O)CCCOCn1ccc(=O)[nH]c1=O)c1cccc(OC2CCCC2)c1 [TAS-114]				survival upon pharmacological inhibition of DUT (NMNAT1−/− RPE-1 cells; 24-hour exposure): decreased survival; sensitivity of BRCA2−/− cells upon UNG depletion ([3]; siUNG, 1 μM TAS-114, rescued by knockdown of SMUG1): sensitized; DSB formation (γH2AX foci) [4]: triggered DNA double-strand break (DSB) formation exclusively during DNA replication
B1				clonogenic survival upon UNG inhibition ([3]; retroviral particles carrying UGI, versus WT cells): selectively kills
